Assay results from patent US11801240B2, “Combination therapies and uses thereof” (Tesaro, Inc., priority 2017, dated 2023).

Columns and labels:
[1] = system: A2780 (BRCA wt, HRD−) ovarian cancer cell line-derived xenograft; assay: Niraparib and cabozantinib combination in ovarian cancer cell line-derived xenograft model A2780; format: in vivo, mouse; conditions: A2780, Balb/C nude female mice, 2 weeks; niraparib 60 mg/kg po qd, cabozantinib 30 mg/kg po qd; end of treatment
[2] = system: ovarian PDX model OVC134; assay: Niraparib and cabozantinib combination in ovarian PDX model OVC134; format: in vivo, mouse
[3] = system: TNBC PDX model MAXF 857; assay: Niraparib+bevacizumab and niraparib+cabozantinib combinations in TNBC PDX model MAXF 857; format: in vivo, mouse; conditions: for Tumor growth inhibition (TGI): MAXF 857, NMRI nude female mice, 5 weeks, bevacizumab 20 mg/kg iv qw, cabozantinib 30 mg/kg po qd, end of treatment
[4] = system: A2780 (BRCA wt, HRD−) ovarian cancer cell line-derived xenograft; assay: Niraparib and bevacizumab combination in ovarian cancer cell line-derived xenograft model A2780; format: in vivo, mouse; conditions: A2780, CB-17 SCID female mice, 2 weeks; niraparib 60 mg/kg po qd, bevacizumab 10 mg/kg iv qw; end of treatment
[5] = system: TNBC PDX model MAXF MX1

Compound	Tumor growth inhibition (TGI) [1] [%]	Tumor growth inhibition (TGI) ([2]; OVC134, Balb/C nude female mice, 7 weeks, cabozantinib 30 mg/kg po qd, end of treatment) [%]	Tumor growth inhibition (TGI) [3] [%]	Tumor growth inhibition (TGI) [4] [%]	Sensitivity of the model to monotherapy (anti-tumor activity) ([2]; ovarian PDX model OVC134, 7 weeks)	Tumor growth inhibition (TGI) ([5]; MAXF MX1, NMRI nude female mice, 5 weeks, niraparib 50 mg/kg po qd, end of treatment) [%]	Sensitivity of the model to monotherapy (anti-tumor activity) ([5]; TNBC PDX model MAXF MX1, 5 weeks)	Sensitivity of the model to monotherapy (anti-tumor activity) ([3]; TNBC PDX model MAXF 857, 5 weeks)
COc1cc2nccc(Oc3ccc(NC(=O)C4(C(=O)Nc5ccc(F)cc5)CC4)cc3)c2cc1OC [cabozantinib]	51	83	65					
NC(=O)c1cccc2cn(-c3ccc([C@@H]4CCCNC4)cc3)nc12 [niraparib, (3S)-3-[4-{7-(aminocarbonyl)-2H-indazol-2-yl}phenyl]piperidine]	18			< 40	very sensitive	99	very sensitive	
bevacizumab: recombinant humanized monoclonal antibody that can block angiogenesis and inhibit vascular endothelial growth factor A (VEGF-A)			76	55				very sensitive
